Results taken from patent US10179770B2, “Quinolines derivatives as novel anticancer agents” (GENOSCIENCE PHARMA, priority 2013, dated 2019).
Structures can show the parent of a compound that is named as a salt. Where two headings read alike, the source gives them in different places.

Legend:
[1] = test system: patient derived acute myeloid leukemia (AML) cell lines; assay: Cell growth inhibition assay, patient derived AML cells; type: cell-based, human; conditions: 48 h
Method: The patient derived acute myeloid leukemia (AML) cells were obtained after written informed consent under the Institut Paoli Calmette (IPC) institutional review board approval and under the strict compliance of the Helsinki declaration on medical research involving human subjects. […] Each compound was added at different concentrations (combinations of six concentrations) to each well, and cell cultures were incubated for 48 h. Vehicle (H2O) was used as a control, and all compounds were tested in a constant percentage of vehicle. Cell outgrowth was measured using the CellTiter-Glo luminescent cell viability assay as described by the manufacturer (Promega, Ref G7571 Madison, Wis., USA) using a Centro (Berthold, France) plate reader. In each experiment, each point represents the average of triplicates in cell culture. The experimental data are analyzed using a computer program, Graphpad Prism (GraphPad Software, Inc.

[2] = test system: PBMC Healthy voluntary donor; assay: Cell growth inhibition assay, PBMC of healthy donors; type: cell-based, human; conditions: PBMC Healthy voluntary donor 1
Method: Each compound was added at different concentrations (combinations of six concentrations) to each well, and cell cultures were incubated for 48 h. Vehicle (H2O) was used as a control, and all compounds were tested in a constant percentage of vehicle. Cell outgrowth was measured using the CellTiter-Glo luminescent cell viability assay as described by the manufacturer (Promega, Ref G7571 Madison, Wis., USA) using a Centro (Berthold, France) plate reader. In each experiment, each point represents the average of triplicates in cell culture. The experimental data are analyzed using a computer program, Graphpad Prism (GraphPad Software, Inc.

HCT-116 [3] = assay: EC50 determination in cancer cell lines; type: cell-based, human
Method: (§1) Compounds were added at different concentrations to each well, and cell cultures were incubated for 72 h. Vehicle (DMSO or H2O) was used as a control, and all compounds were tested in a constant percentage of vehicle. Cell outgrowth was measured using for adherent cells CellTiter […] Aqueous One Solution Cell Proliferation Assay (Promega) and for cell suspension, Sulforhodamine B colorimetric assay as described in Vichai et al. (Vichai, V. and Kirtikara, K. Nat. Protoc. 2006 (1) 1112-1116). Absorbance was measured using an Infinite F200 Pro or Sunrise TECAN plate reader.
(§2) The human melanoma cell line A375, colorectal carcinoma cell line HCT-116, hepatocellular carcinoma cell line HepG2 were cultured in Dulbecco's modified Eagle's medium supplemented with 10% fetal bovine serum and 1% Penicillin-Streptomycin. The human melanoma cell lines SK-MEL-28 and SK-MEL-5 were cultured in Minimum Essential Medium. The colorectal carcinoma cell lines HT-29 and Colo205 were respectively cultured in Mc Coy's and RPMI media. The human leukemia cell lines MV4-11 and KG-1 were cultured in Iscove's Modified Dulbecco's Media. The human leukemia cell line MOLM-14 was cultured in Minimum Essential Medium Alpha Medium supplemented with 10% Fetal Bovine Serum and 1% Penicillin-Streptomycin All culture media were supplemented with 10% fetal bovine serum and 1% Penicillin-Streptomycin except for MV4-11 cell line 20% fetal bovine serum and 1% Penicillin-Streptomycin. All the cell lines were maintained at 37° C. with 5% C02.
Briefly, adherent cells, A375, HCT-116, HepG2, SK-MEL-28, SK-MEL-5, HT-29 and Colo205 cells were respectively plated at 800, 5,000, 7,000, 2,500, 3,000-5,000, 5,000 or 5,000 cells per well onto 96-well plates in 90 μL of media per well and were allowed to grow overnight before the assay. For MV4-11 and KG-1 cells that grow in suspension, 40,000-60,000 cells were plated onto 96-well plates immediately before the assay. MOLM-14 cell line, that grow in suspension, 30,000 cells were plated onto 96-well plates immediately before the assay. […]
(§3) The experimental data are analyzed using a computer program, Graphpad Prism (GraphPad Software, Inc. La Jolla, Calif.) and EC50 values were determined as the dose of compound required to reduce absorbance values to 50% of the signal obtained for vehicle treated cell cultures and were a mean of at least two independent experiments except for EC50 values with (*) where […].

HepG2 = assay: EC50 determination in cancer cell lines; type: cell-based, human
Method: as §1, §2
(§4) Briefly, adherent cells, A375, HCT-116, HepG2, SK-MEL-28, SK-MEL-5, HT-29 and Colo205 cells were respectively plated at 800, 5,000, 7,000, 2,500, 3,000-5,000, 5,000 or 5,000 cells per well onto 96-well plates in 90 μL of media per well and were allowed to grow overnight before the assay. For MV4-11 and KG-1 cells that grow in suspension, 40,000-60,000 cells were plated onto 96-well plates immediately before the assay. MOLM-14 cell line, that grow in suspension, 30,000 cells were plated onto 96-well plates immediately before the assay.
(§5) The cell growth measure was the same as described in example 51.
as §3

A-375 = assay: EC50 determination in cancer cell lines; type: cell-based, human
Method: as §1, §2, §4, §5, §3

MOLM-14 [4] = assay: EC50 determination in cancer cell lines; type: cell-based; conditions: Homo sapiens, 72 h
Method: as §1, §2, §4, §5, §3

A375 = assay: Cell proliferation assay at 10 μM; type: cell-based, human; conditions: Homo sapiens, read-out: Cell viability observed at 10 μM
Method: (§6) The human melanoma cell line A375 and colorectal carcinoma cell line HCT-116 were cultured in Dulbecco's modified Eagle's medium supplemented with 10% fetal bovine serum and 1% Penicillin-Streptomycin. The human leukemia cell line MOLM-14 was cultured in Minimum Essential Medium Alpha Medium supplemented with 10% Fetal Bovine Serum and 1% Penicillin-Streptomycin. All the cell lines were maintained at 37° C. with 5% CO2.
(§7) Briefly, adherent cells, A375 and HCT-116 cells were respectively plated at 800 or 5,000 cells per well onto 96-well plates in 90 μL of media per well and were allowed to grow overnight before the assay.
as §1
(§8) In each experiment, each point represents the average of two replicates in cell culture.
(§9) Results are presented in Table 1 below for concentrations of 10 μM of tested compounds.

HCT-116 [5] = assay: Cell proliferation assay at 10 μM; type: cell-based; conditions: Homo sapiens, HCT-116, 72 h, read-out: Cell viability observed at 10 μM
Method: as §6, §7, §1, §8, §9

MOLM-14 [6] = assay: Cell proliferation assay at 10 μM; type: cell-based, human; conditions: Homo sapiens, read-out: Cell viability observed at 10 μM
Method: as §6
For MOLM-14 cell line, which grows in suspension, 30,000 cells were plated onto 96-well plates immediately before the assay.
as §1, §8, §9

SMILES | EC50 (HCT-116 [3]; Homo sapiens, HCT-116, 72 h) [µM] | EC50 (HepG2; Homo sapiens, HepG2, 72 h) [µM] | EC50 (A-375; Homo sapiens, A-375, 72 h) [µM] | EC50 (MOLM-14 [4]) [µM] | viability at 10 µM (A375; A-375, 72 h) [%] | viability at 10 µM (HCT-116 [5]) [%] | viability at 10 µM (MOLM-14 [6]; MOLM-14, 72 h) [%] | also measured
Nc1ccn([C@@H]2O[C@H](CO)[C@@H](O)[C@@H]2O)c(=O)n1 [AraC, cytosine arabinoside, reference compound] |  |  |  |  |  |  |  | EC50 ([1]; Patient 3, subtype Tri8): 44 µM; EC50 ([1]; Patient 8, subtype FLT3−): 51 µM; EC50 ([1]; Patient 9, subtype FLT3+): 21 µM; EC50 ([1]; Patient 10, subtype Inv 3): 36 µM; EC50 ([1]; Patient 12, subtype 5 & 7): > 40 µM; EC50 ([1]; Patient 13, subtype MLL): 3 µM; EC50 ([1]; Patient 16, subtype Inv 3): 11 µM; EC50 [2]: 13 µM
CCN(CC)C1CCN(c2cc(-c3ccccc3)nc3cc(Cl)ccc23)CC1 [II-3, 7-chloro-2-phenyl-4-(4-N,N-diethylamino-piperidin-1-yl)quinoline] | 4 | 8 | 3 | 5 |  |  |  | 
CCN(CC)C1CCN(c2cc(-c3ccc(-c4ccccc4)cc3)nc3ccccc23)CC1 [IX-2, 2-(1,1′-biphenyl)-4-yl-4-(4-N,N-diethylamino-piperidin-1-yl)quinoline dihydrochloride] | 4 | 13 | 3 | 4 | < 20 | < 20 | < 20 | 
CCN(CC)C1CCN(c2cc(-c3ccc4ccccc4c3)nc3ccccc23)CC1 [VI-5, 2-(2-naphtyl)-4-(4-N,N-diethylamino-piperidin-1-yl)quinoline] | 6 | 11 | 4 | 5 |  |  |  | 
CN(C)CCCNc1cc(-c2ccccc2)nc2ccccc12 [XL-2, N^1,N^1-dimethyl-N^3-(2-phenylquinoline-4-yl)propane-1,3-diamine trifluoroacetate salt] | 5 | 17 | 3 | 3 |  |  |  | viability at 10 µM (A375; A-375, A375, 10 μM, 72 h, % of cell viability remaining): < 20%; viability at 10 µM (HCT-116 [5]; HCT-116, 10 μM, 72 h, % of cell viability remaining): 20 to 40%; viability at 10 µM (MOLM-14 [6]; MOLM-14, 10 μM, 72 h, % of cell viability remaining): < 20%
CN(C)CCCNc1cc(-c2ccccc2)nc2ccccc12 [XLI-1, N^1,N^1-dimethyl-N^3-(2-phenylquinoline-4-yl)propane-1,3-diamine] |  |  |  |  |  |  |  | EC50 (HCT-116 [3]; 72 h): 4 µM; EC50 (HepG2; 72 h): 10 µM; EC50 (A-375; 72 h): 2 µM
CN(C)CCCNc1cc(-c2ccc3ccccc3c2)nc2ccccc12 [XLII-2, N^1,N^1-dimethyl-N^3-[2-(naphtalen-2-yl)quinoline-4-yl]propane-1,3-diamine hydrochloride salt] | 11 | 19 | 3 | 4 | < 20 | < 20 | < 20 | 
CN(C)CCCNCc1cc(-c2ccccc2)nc2cc(Cl)ccc12 [XLIV-1, N^1,N^1-dimethyl-N^3-(7-chloro-2-phenylquinoline-4-ylmethyl)-propane-1,3-diamine] | 6 | 10 | 4 | 6 |  |  |  | 
COc1ccc(-c2cc(N3CCC(NC(C)(C)C)CC3)c3ccccc3n2)cc1 [XV-8, 2-(4-methoxy-phenyl)-4-(4-N-tert-butylamino-piperidin-1-yl)quinoline dihydrochloride] | 17 | 27 | 10 | 3 | 20 to 40 | > 80 | < 20 | 
CCN(CC)C1CCN(C(C)c2cc(-c3ccccc3)nc3cc(Cl)ccc23)CC1 (stereo not drawn) [XVI-4, 7-Chloro-2-phenyl-4-{1-[4-(N,N-diethylamino)-piperidin-1-yl]-eth-1-yl}quinoline dihydrochloride] | 6 | 13 | 4 | 6 | < 20 | < 20 | < 20 | 
CCN(CC)C1CCN(Cc2cc(-c3ccccc3)nc3cc(Cl)ccc23)CC1 [XVII-6, 7-Chloro-2-phenyl-4-[4-(N,N-diethylamino)-piperidin-1-ylmethyl]quinoline dihydrochloride] | 4 | 8 | 3 | 5 | < 20 | < 20 | < 20 | 
CC(c1cc(-c2ccccc2)nc2ccccc12)N1CCC(NC(C)(C)C)CC1 (stereo not drawn) [XXIII-2, 2-phenyl-4-{1-[4-N-tert-butylamino-piperidinyl]-eth-1-yl}quinoline dihydrochloride] |  |  |  | 6 | < 20 | 20 to 40 | < 20 | EC50 (HCT-116 [3]; Homo sapiens, 72 h): 11 µM; EC50 (HepG2; Homo sapiens, 72 h): 18 µM; EC50 (A-375; Homo sapiens, 72 h): 8 µM
